Assay results taken from patent US9265784B2, “Antineoplastic combinations of 4-anilino-3-cyanoquinolines and capecitabine” (WYETH LLC, priority 2008, dated 2016).
Like-named read-outs stand apart in the source and are kept apart here.

Legend:
Type in all cases: in vivo, human
[1] = Preliminary pharmacokinetic analyses of neratinib after oral administration; settings: for AUC / Cmax: oral daily; for AUC: read-out: Mean steady-state AUC; for Cmax: read-out: Mean steady-state Cmax
Text: The mean accumulation ratio was 1.2 after a 240-mg dose, indicating no significant accumulation of neratinib after repeated daily dose administration at the dose to be used in this proposed trial.
The data indicated a slow distribution of neratinib with a large apparent volume of distribution (Vz/F on day 1: about 3188 to 6181 L) after oral absorption. […] There was moderate to large variability in neratinib t1/2, Cmax, and AUC; coefficients of variation (CVs) generally ranged from 8% to 90%.

[2] = Ongoing phase 2 study of neratinib 240 mg daily oral, adverse events
Protocol: (§1) In an ongoing phase 2 study, neratinib is being administered as daily oral doses of 240 mg in subjects with erbB-2-overexpressing advanced or metastatic breast cancer, who received up to 4 prior cytotoxic chemotherapy treatment regimens, with prior trastuzumab therapy for metastatic or locally advanced disease (≧6 weeks) or with no prior exposure to erbB-2-targeted treatment. Preliminary results were obtained for 124 subjects evaluable for efficacy based on independent assessment and 131 subjects evaluable per investigator assessment. […] Median Progression Free Survival (PFS) for independent (and investigator) assessment was 23 (22), with a 16-week PFS rate of 61% (57%) in subjects who had received prior trastuzumab. For trastuzumab naïve subjects, PFS per independent (and investigator) assessment was 40 (35), with a 16-week PFS rate of 75% (78%).
The predominant AE was diarrhea, which was reversible and generally manageable by medication, temporary discontinuation of treatment, or dose reduction. Diarrhea that was considered related to neratinib occurred with a frequency of 94% of the subjects. Of those, grade 3-4 diarrhea was experienced by 25% of the subjects. Other common AEs were nausea (related to neratinib in 30%, grade 3-4 in 2% of the subjects), vomiting (related in 23%, grade 3-4 in 2%), fatigue (related in 20%, grade 3-4 in <2%), and anorexia (related in 16%, grade 3-4 in 4%). […] Presented at the Poster presented at the SABCS, San Antonio, USA].

[3] = tested on: erbB-2-overexpressing advanced or metastatic breast cancer; assay: Ongoing phase 2 study of neratinib 240 mg daily oral, efficacy
Protocol: as §1

[4] = human, in vivo, 400 mg (highest dose)
[5] = human, in vivo, 180-mg dose group
[6] = human, in vivo, 240-mg dose group
[7] = human, in vivo, 320-mg dose group
[8] = prior trastuzumab, independent assessment
[9] = prior trastuzumab, investigator assessment
[10] = trastuzumab naïve subjects, independent assessment
[11] = trastuzumab naïve subjects, investigator assessment

Q: With `CCOc1cc2ncc(C#N)c(Nc3ccc(OCc4ccccn4)c(Cl)c3)c2cc1NC(=O)/C=C/CN(C)C` [neratinib, (2E)-N-[4-[[3-chloro-4-[(pyridin-2-yl)methoxy]phenyl]amino]-3-cyano-7-ethoxyquinolin-6-yl]-4-(dimethylamino)but-2-enamide] as the compound, how does the mean accumulation ratio ([1]; after a 240-mg dose, repeated daily administration) read?
A: 1.2

Q: What about the “dose dependence of Cmax and AUC” value ([1]; after oral administration) of the same compound?
A: increased in a dose-dependent manner

Q: What about the AUC [1, 4] of the same compound?
A: 1700 ng·h/mL

Q: And the Cmax [1, 4]?
A: 105 ng/mL

Q: What about the AUC [1, 5] of the same compound?
A: 975 ng·h/mL

Q: And the Cmax [1, 5]?
A: 70.1 ng/mL

Q: And the AUC [1, 6]?
A: 939 ng·h/mL

Q: And the Cmax [1, 6]?
A: 73.5 ng/mL

Q: And the AUC [1, 7]?
A: 1330 ng·h/mL

Q: What about the Cmax [1, 7] of the same compound?
A: 90.4 ng/mL

Q: What about the Vd/F ([1]; human, in vivo, day 1, after oral absorption, read-out: apparent volume of distribution (Vz/F)) of the same compound?
A: 3190 to 6180 L

Q: And the half-life ([1]; human, in vivo, oral administration, day 1, read-out: mean apparent terminal half-life (t1/2))?
A: 13 to 17 h

Q: And the absorption ([1]; oral)?
A: relatively slow

Q: What about the “Diarrhea considered related to neratinib, frequency of subjects” value ([2]; 240 mg daily oral) of the same compound?
A: 94%

Q: What about the “anorexia grade 3-4, subjects” value ([2]; 240 mg daily oral) of the same compound?
A: 4%

Q: What about the “anorexia related, subjects” value ([2]; 240 mg daily oral) of the same compound?
A: 16%

Q: And the “fatigue grade 3-4, subjects” value ([2]; 240 mg daily oral)?
A: < 2%

Q: And the “fatigue related, subjects” value ([2]; 240 mg daily oral)?
A: 20%

Q: What about the “grade 3-4 diarrhea, subjects” value ([2]; 240 mg daily oral) of the same compound?
A: 25%

Q: What about the “nausea grade 3-4, subjects” value ([2]; 240 mg daily oral) of the same compound?
A: 2%

Q: And the “nausea related to neratinib, subjects” value ([2]; 240 mg daily oral)?
A: 30%

Q: And the “vomiting grade 3-4, subjects” value ([2]; 240 mg daily oral)?
A: 2%

Q: And the “vomiting related, subjects” value ([2]; 240 mg daily oral)?
A: 23%

Q: And the tolerability ([2]; daily oral doses of 240 mg)?
A: generally well tolerated

Q: And the “16-week PFS rate” value [3, 8]?
A: 61%

Q: What about the “Median Progression Free Survival (PFS)” value [3, 8] of the same compound?
A: 23

Q: What about the “16-week PFS rate” value [3, 9] of the same compound?
A: 57%

Q: What about the “Median Progression Free Survival (PFS)” value [3, 9] of the same compound?
A: 22

Q: And the antitumor activity ([3]; subjects with erbB-2-positive advanced breast cancer, 240 mg daily oral)?
A: significant antitumor activity

Q: What about the ORR ([3]; subjects with prior trastuzumab containing therapy in the metastatic setting, independently assessed, 240 mg daily oral) of the same compound?
A: 26%

Q: And the ORR ([3]; subjects with prior trastuzumab containing therapy in the metastatic setting, investigator assessed, 240 mg daily oral)?
A: 35%

Q: And the “16-week PFS rate” value [3, 10]?
A: 75%

Q: And the PFS [3, 10]?
A: 40

Q: What about the ORR ([3]; trastuzumab naïve subjects, independently assessed, 240 mg daily oral) of the same compound?
A: 51%

Q: And the ORR ([3]; trastuzumab naïve subjects, investigator assessed, 240 mg daily oral)?
A: 62%

Q: And the “16-week PFS rate” value [3, 11]?
A: 78%

Q: And the PFS [3, 11]?
A: 35
